# Measured values from patent publication US20260174878A1, “IRAK4 DEGRADATION AGENT AND USE THEREOF” (LEADINGTAC PHARMACEUTICAL (SHAOXING) CO., LTD., priority 2022, published 2026).
# Target: T1, IRAK4 protein in normal human PBMCs (Homo sapiens, UniProt Q9NWZ3)
# T1 construct: host or cells: normal human PBMCs
# T1 sequence (Q9NWZ3 1-460): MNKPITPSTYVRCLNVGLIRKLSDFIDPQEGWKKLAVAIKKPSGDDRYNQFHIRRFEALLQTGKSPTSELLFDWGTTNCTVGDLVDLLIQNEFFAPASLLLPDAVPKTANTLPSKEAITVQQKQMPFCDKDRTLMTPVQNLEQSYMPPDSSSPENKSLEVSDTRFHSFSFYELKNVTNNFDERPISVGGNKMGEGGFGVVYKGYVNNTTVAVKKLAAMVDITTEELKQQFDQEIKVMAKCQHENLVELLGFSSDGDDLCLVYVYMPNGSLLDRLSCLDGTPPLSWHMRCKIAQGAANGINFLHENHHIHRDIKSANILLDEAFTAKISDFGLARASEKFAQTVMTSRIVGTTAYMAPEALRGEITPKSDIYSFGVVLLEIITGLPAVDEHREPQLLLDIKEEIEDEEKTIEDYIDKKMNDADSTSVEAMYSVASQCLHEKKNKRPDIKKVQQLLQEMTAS
# Assay: Degradation of IRAK4 protein in normal human PBMCs (AlphaLISA)
# Type: cell-based
# Conditions: 24 h incubation
# Protocol: The cryopreserved normal human PBMCs (Milestone, PB010C) were thawed and resuspended in RPMI 1640 medium (Gibco, A1049101) supplemented with 10% fetal bovine serum (Gibco, 10099141), 100 U/mL penicillin, and 100 µg/mL streptomycin (Gibco, 15140122). After 0.95 mL of cells were plated in each well of a 24-well cell culture plate, 50 µL of diluted compound solution was added to corresponding wells with cells, such that the final concentration of the compound fell within the range of 0.01-3000 nM. The final concentration of DMSO was 0.25%. After the compound-treated cell plate was incubated in an incubator at 37° C. with 5% CO2 for 24 h, the cells were collected into 1.5 mL centrifuge tubes and centrifuged at 1000 rpm at 4° C. for 5 min. The cell pellets were washed twice with 1×DPBS. The resuspended cells were lysed with 100 μL of lysis buffer, left to stand on ice for 30 min, and then centrifuged at 14000 g at 4° C. for 10 min. The samples of the cell lysate supernatant after centrifugation were cryopreserved at −80° C. before testing. The cell lysis buffer was a Western and IP cell lysis buffer (Beyotime, P0013) supplemented with 1 mM phenylmethylsulfonyl fluoride and a protease inhibitor cocktail (Beyotime, P1008).
# The total protein concentrations of the cell lysate samples were determined using a BCA protein quantification kit (Tiangen, PA115-02).
# The prepared PBMC lysate samples were assayed for IRAK4 concentrations using a human IRAK4 AlphaLISA assay kit (PerkinElmer, AL3117C) to determine the degradation effects of the compounds on IRAK4. The method is as follows:
# 5 μL of each of IRAK4 standard solutions with different concentrations and test samples of cell lysate supernatant were added to a white 384-well plate (PerkinElmer, 6007299), and then 10 μL of 5× anti-IRAK4 […] beads was added to each well (final concentration of 10 μg/mL). The plate was incubated at room temperature for 30 min. Then 10 μL of 5× biotin-labeled anti-IRAK4 antibody was added to each well (final concentration of 1 nM), and the plate was incubated at room temperature for another 60 min. Finally, 25 μL of 2× streptavidin-labeled donor beads was added to each well (final concentration of 40 μg/mL), and the plate was incubated at room temperature for another 30 min. After the incubation was completed, AlphaLISA signal values were measured on a microplate reader EnVision (PerkinElmer, 2105) in the AlphaScreen standard mode. A standard curve was plotted from the AlphaLISA signal values of the IRAK4 standard solutions with different concentrations, and the IRAK4 concentration of each cell lysate supernatant was determined according to the corresponding concentrations on the standard curve for the AlphaLISA signal values of the test samples and by performing corresponding correction on the total protein concentration of each sample obtained by BCA quantification. The degradation rates for the compounds at each concentration were calculated by comparing the IRAK4 concentration with that of the control group. Then non-linear curve fittings for logarithmic concentration-inhibition rate were performed using GraphPad Prism 8, and the DC50 and Dmax values of the compound were obtained.
Structure (SMILES),DC50,Dmax
"Cc1ccc(C(=O)N2CCC3(CCC(CN4CCC(n5cc(NC(=O)c6cnn7ccc(N8CCOCC8)nc67)c(C(F)F)n5)CC4)CC3)CC2)cc1N1CCC(=O)NC1=O [Example 13, N-(3-(difluoromethyl)-1-(1-((3-(3-(2,4-dioxotetrahydropyrimidin-1(2H)-yl)-4-methylbenzoyl)-3-azaspiro[5.5]undecan-9-yl)methyl)piperidin-4-yl)-1H-pyrazol-4-yl)-5-morpholinopyrazolo[1,5-a]pyrimidine-3-carboxamide]",0.21 nM,98.2%
"COc1ccc(C(=O)N2CCC3(CCC(CCN4CCC(n5cc(NC(=O)c6cnn7ccc(N8CCOCC8)nc67)c(C(F)F)n5)CC4)CC3)CC2)cc1N1CCC(=O)NC1=O [Example 16, N-(3-(difluoromethyl)-1-(1-(2-(3-(3-(2,4-dioxotetrahydropyrimidin-1(2H)-yl)-4-methoxybenzoyl)-3-azaspiro[5.5]undecan-9-yl)ethyl)piperidin-4-yl)-1H-pyrazol-4-yl)-5-morpholinopyrazolo [1,5-a]pyrimidine-3-carboxamide]",0.7 nM,98.4%
"Cc1ccc(C(=O)N2CCC3(CCC(CN4CCC(n5cc(NC(=O)c6cnn7ccc(N8C[C@H]9C[C@@H]8CO9)nc67)c(C(F)F)n5)CC4)CC3)CC2)cc1N1CCC(=O)NC1=O [Example 21, 5-((1R,4R)-2-oxa-5-azabicyclo[2.2.1]heptan-5-yl)-N-(3-(difluoromethyl)-1-(1-((3-(3-(2,4-dioxotetrahydropyrimidin-1(2H)-yl)-4-methylbenzoyl)-3-azaspiro[5.5]undecan-9-yl)methyl)piperidin-4-yl)-1H-pyrazol-4-yl)pyrazolo[1,5-a]pyrimidine-3-carboxamide]",0.45 nM,96.2%
"O=C1CCN(c2cc(C(=O)N3CCC4(CCC(CN5CCC(n6cc(NC(=O)c7cnn8ccc(N9CCC[C@H](O)C9)nc78)c(C(F)F)n6)CC5)CC4)CC3)ccc2Cl)C(=O)N1 [Example 26, (S)—N-(1-(1-((3-(4-chloro-3-(2,4-dioxotetrahydropyrimidin-1(2H)-yl)benzoyl)-3-azaspiro[5.5]undecan-9-yl)methyl)piperidin-4-yl)-3-(difluoromethyl)-1H-pyrazol-4-yl)-5-(3-hydroxypiperidin-1-yl)pyrazolo[1,5-a]pyrimidine-3-carboxamide]",0.35 nM,97.8%
"O=C1CCN(c2cc(C(=O)N3CCC4(CCC(CN5CCC(n6cc(NC(=O)c7cnn8ccc(N9C[C@H]%10C[C@@H]9CO%10)nc78)c(C(F)F)n6)CC5)CC4)CC3)ccc2Cl)C(=O)N1 [Example 1, 5-((1R,4R)-2-oxa-5-azabicyclo[2.2.1]heptan-5-yl)-N-(1-(1-((3-(4-chloro-3-(2,4-dioxotetrahydropyrimidin-1(2H)-yl)benzoyl)-3-azaspiro[5.5]undecan-9-yl)methyl)piperidin-4-yl)-3-(difluoromethyl)-1H-pyrazol-4-yl)pyrazolo[1,5-a]pyrimidine-3-carboxamide]",1.28 nM,99%
"COc1ccc(C(=O)N2CCC3(CCN(CCCN4CCC(n5cc(NC(=O)c6cnn7ccc(N8CCOCC8)nc67)c(C(F)F)n5)CC4)CC3)CC2)cc1N1CCC(=O)NC1=O [Example 28, N-(3-(difluoromethyl)-1-(1-(3-(9-(3-(2,4-dioxotetrahydropyrimidin-1(2H)-yl)-4-methoxybenzoyl)-3,9-diazaspiro[5.5]undecan-3-yl)propyl)piperidin-4-yl)-1H-pyrazol-4-yl)-5-morpholinopyrazolo[1,5-a]pyrimidine-3-carboxamide]",4.73 nM,107%
"O=C1CCN(c2cc(C(=O)N3CCC(OCCCN4CCC(n5cc(NC(=O)c6cnn7ccc(N8C[C@H]9C[C@@H]8CO9)nc67)c(C(F)F)n5)CC4)CC3)ccc2Cl)C(=O)N1 [Example 31, 5-((1R,4R)-2-oxa-5-azabicyclo[2.2.1]heptan-5-yl)-N-(1-(1-(3-((1-(4-chloro-3-(2,4-dioxotetrahydropyrimidin-1(2H)-yl)benzoyl)piperidin-4-yl)oxy)propyl)piperidin-4-yl)-3-(difluoromethyl)-1H-pyrazol-4-yl)pyrazolo[1,5-a]pyrimidine-3-carboxamide]",0.84 nM,99.2%

# Further molecules by falling DC50, results first:
DC50,Dmax,Structure (SMILES)
1 nM,100%,"N[C@H]1CCCN(c2ccn3ncc(C(=O)Nc4cn(C5CCN(CC6CCC7(CC6)CCN(C(=O)c6ccc(Cl)c(N8CCC(=O)NC8=O)c6)CC7)CC5)nc4C(F)F)c3n2)C1 [Example 30, (S)-5-(3-aminopiperidin-1-yl)-N-(1-(1-((3-(4-chloro-3-(2,4-dioxotetrahydropyrimidin-1(2H)-yl)benzoyl)-3-azaspiro[5.5]undecan-9-yl)methyl)piperidin-4-yl)-3-(difluoromethyl)-1H-pyrazol-4-yl)pyrazolo [1,5-a]pyrimidine-3-carboxamide]"
0.92 nM,98.9%,CN(CCC1CCN(C(=O)c2ccc(F)c(C3CCC(=O)NC3=O)c2)CC1)C(=O)[C@H]1CC[C@H](n2cc(NC(=O)c3cnn4ccc(N5CCOCC5)nc34)c(C(F)F)n2)CC1 (stereo partly drawn) [Example 17]
0.32 nM,97.5%,"Cc1ccc(C(=O)N2CCC3(CCC(CN4CCC(n5cc(NC(=O)c6cnn7ccc(N8CCC[C@H](O)C8)nc67)c(C(F)F)n5)CC4)CC3)CC2)cc1N1CCC(=O)NC1=O [Example 25, (S)—N-(3-(difluoromethyl)-1-(1-((3-(3-(2,4-dioxotetrahydropyrimidin-1(2H)-yl)-4-methylbenzoyl)-3-azaspiro[5.5]undecan-9-yl)methyl)piperidin-4-yl)-1H-pyrazol-4-yl)-5-(3-hydroxypiperidin-1-yl)pyrazolo [1,5-a]pyrimidine-3-carboxamide]"
0.27 nM,98.2%,"COc1ccc(C(=O)N2CCC(CCN(C)C[C@H]3CC[C@H](n4cc(NC(=O)c5cnn6ccc(N7CCC[C@H](O)C7)nc56)c(C(F)F)n4)CC3)CC2)cc1N1CCC(=O)NC1=O [Example 14, N-(3-(difluoromethyl)-1-((1R,4S)-4-(((2-(1-(3-(2,4-dioxotetrahydropyrimidin-1(2H)-yl)-4-methoxybenzoyl)piperidin-4-yl)ethyl)(methyl)amino)methyl)cyclohexyl)-1H-pyrazol-4-yl)-5-((S)-3-hydroxypiperidin-1-yl)pyrazolo[1,5-a]pyrimidine-3-carboxamide]"

# Target: T2, IRAK4 kinase (Homo sapiens, UniProt Q9NWZ3)
# T2 construct: purchased Carna
# T2 sequence (Q9NWZ3 1-460): T1 sequence (Q9NWZ3 1-460)
# Assay: IRAK4 kinase activity test (KinEASE-STK S1 HTRF kit)
# Type: biochemical
# Conditions: IRAK4 kinase 2.5 nM, 7 μM adenosine triphosphate, 37° C. 120 min
# Protocol: Then 2.5 nM IRAK4 kinase (Carna), 1 μM biotinylated polypeptide substrate (Cisbio), and 7 μM adenosine triphosphate (Sigma-Aldrich) were sequentially added, and the mixtures were incubated at 37° C. for 120 min. Subsequently, an anti-phosphoserine/threonine antibody (Cisbio) conjugated with a europium element compound and streptavidin conjugated with a modified XL665 (Cisbio) were added to the reaction system to stop the reaction. After 1 h of incubation at room temperature, the fluorescence intensity of each well was measured at the excitation wavelength of 337 nm and the emission wavelengths of 620 nm and 665 nm with a microplate reader EnVision (PerkinElmer) in the HTRF mode, and Ratio values were calculated using the formula: Ratio=(665 nm/620 nm)×10^4. The inhibition rates of the compounds at each concentration were calculated by comparison with the fluorescence intensity ratio of the control group. Then non-linear curve fittings for logarithmic concentration-inhibition rate were performed using GraphPad Prism 7, and the IC50 values of the compounds were obtained.
row,Structure (SMILES),IC50
1,"COc1ccc(C(=O)N2CCC(CCN(C)C[C@H]3CC[C@H](n4cc(NC(=O)c5cnn6ccc(N7CCC[C@H](O)C7)nc56)c(C(F)F)n4)CC3)CC2)cc1N1CCC(=O)NC1=O [Example 14, N-(3-(difluoromethyl)-1-((1R,4S)-4-(((2-(1-(3-(2,4-dioxotetrahydropyrimidin-1(2H)-yl)-4-methoxybenzoyl)piperidin-4-yl)ethyl)(methyl)amino)methyl)cyclohexyl)-1H-pyrazol-4-yl)-5-((S)-3-hydroxypiperidin-1-yl)pyrazolo[1,5-a]pyrimidine-3-carboxamide]",3.36 nM
2,CN(CCC1CCN(C(=O)c2ccc(F)c(C3CCC(=O)NC3=O)c2)CC1)C(=O)[C@H]1CC[C@H](n2cc(NC(=O)c3cnn4ccc(N5CCOCC5)nc34)c(C(F)F)n2)CC1 (stereo partly drawn) [Example 17],9.82 nM
